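In this assay, cells in 96-well plates receive the compound at five concentrations for 48 hours. Endpoints are linearly interpolated between the surrounding concentrations. At the GI50, growth is halved. TGI marks complete inhibition of growth.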
Key:
Test in all cases: NCI anticancer screen, dose series, 48 h
SF-295 CNS = tested on: SF-295 CNS
HCT-15 colon = tested on: HCT-15 colon
UO-31 renal = tested on: UO-31 renal
COLO 205 colon = tested on: COLO 205 colon
IGROV1 ovarian = tested on: IGROV1 ovarian
HL-60(TB) leukemia = tested on: HL-60(TB) leukemia
T-47D breast = tested on: T-47D breast
SNB-75 CNS = tested on: SNB-75 CNS
OVCAR-3 ovarian = tested on: OVCAR-3 ovarian
SK-MEL-28 melanoma = tested on: SK-MEL-28 melanoma
NCI/ADR-RES ovarian = tested on: NCI/ADR-RES ovarian
HCC-2998 colon = tested on: HCC-2998 colon
CAKI-1 renal = tested on: CAKI-1 renal
HOP-92 NSCLC = tested on: HOP-92 NSCLC
SF-539 CNS = tested on: SF-539 CNS
RXF 393 renal = tested on: RXF 393 renal
RPMI-8226 leukemia = tested on: RPMI-8226 leukemia
SK-OV-3 ovarian = tested on: SK-OV-3 ovarian
MDA-MB-231 breast = tested on: MDA-MB-231 breast
HCT-116 colon = tested on: HCT-116 colon
SK-MEL-2 melanoma = tested on: SK-MEL-2 melanoma
MCF7 breast = tested on: MCF7 breast
SNB-19 CNS = tested on: SNB-19 CNS
HOP-62 NSCLC = tested on: HOP-62 NSCLC
OVCAR-8 ovarian = tested on: OVCAR-8 ovarian
NCI-H460 lung = tested on: NCI-H460 lung
BT-549 breast = tested on: BT-549 breast
SF-268 CNS = tested on: SF-268 CNS
ACHN renal = tested on: ACHN renal
SN12C renal = tested on: SN12C renal
KM12 colon = tested on: KM12 colon
CCRF-CEM leukemia = tested on: CCRF-CEM leukemia
U251 CNS = tested on: U251 CNS
DU-145 prostate = tested on: DU-145 prostate
MALME-3M melanoma = tested on: MALME-3M melanoma
UACC-257 melanoma = tested on: UACC-257 melanoma
MOLT-4 leukemia = tested on: MOLT-4 leukemia
786-0 renal = tested on: 786-0 renal
HS 578T breast = tested on: HS 578T breast
TK-10 renal = tested on: TK-10 renal
A549 NSCLC = tested on: A549 NSCLC
SK-MEL-5 melanoma = tested on: SK-MEL-5 melanoma
NCI-H522 lung = tested on: NCI-H522 lung
SR leukemia = tested on: SR leukemia
A498 renal = tested on: A498 renal
OVCAR-4 ovarian = tested on: OVCAR-4 ovarian
M14 melanoma = tested on: M14 melanoma
NCI-H23 lung = tested on: NCI-H23 lung
OVCAR-5 ovarian = tested on: OVCAR-5 ovarian
SW-620 colon = tested on: SW-620 colon
MDA-MB-435 = tested on: MDA-MB-435
HT29 colon = tested on: HT29 colon
LOX IMVI melanoma = tested on: LOX IMVI melanoma
K-562 leukemia = tested on: K-562 leukemia
NCI-H226 lung = tested on: NCI-H226 lung
PC-3 prostate = tested on: PC-3 prostate
UACC-62 melanoma = tested on: UACC-62 melanoma

## CCN(CC)CCC(=O)Nc1cccc2c1C(=O)c1c(c(O)c3ccccc3c1O)C2=O
SF-295 CNS
  GI50: 12.8 µM
  TGI: > 100 µM
HCT-15 colon
  GI50: 0.934 µM
  TGI: > 100 µM
UO-31 renal
  GI50: 1.12 µM
  TGI: 3.31 µM
COLO 205 colon
  GI50: 20.7 µM
  TGI: > 100 µM
IGROV1 ovarian
  GI50: 18.9 µM
  TGI: 96.8 µM
HL-60(TB) leukemia
  GI50: > 100 µM
  TGI: > 100 µM
T-47D breast
  GI50: > 100 µM
  TGI: > 100 µM
SNB-75 CNS
  GI50: 2.11 µM
  TGI: 10.8 µM
OVCAR-3 ovarian
  GI50: 15 µM
  TGI: 52.2 µM
SK-MEL-28 melanoma
  GI50: 3.65 µM
  TGI: 14.4 µM
NCI/ADR-RES ovarian
  GI50: 3.94 µM
  TGI: 40.4 µM
HCC-2998 colon
  GI50: > 100 µM
  TGI: > 100 µM
CAKI-1 renal
  GI50: > 100 µM
  TGI: > 100 µM
HOP-92 NSCLC
  GI50: 0.237 µM
  TGI: 8.56 µM
SF-539 CNS
  GI50: 3.38 µM
  TGI: 13.8 µM
RXF 393 renal
  GI50: 4.16 µM
  TGI: 23.8 µM
RPMI-8226 leukemia
  GI50: 14.2 µM
  TGI: 43.1 µM
SK-OV-3 ovarian
  GI50: 85.3 µM
  TGI: > 100 µM
MDA-MB-231 breast
  GI50: 9.64 µM
  TGI: 26.1 µM
HCT-116 colon
  GI50: 8.8 µM
  TGI: > 100 µM
SK-MEL-2 melanoma
  GI50: > 100 µM
  TGI: > 100 µM
MCF7 breast
  GI50: 6.77 µM
  TGI: 22.9 µM
SNB-19 CNS
  GI50: 16.8 µM
  TGI: 44.8 µM
HOP-62 NSCLC
  GI50: 10.4 µM
  TGI: 39.1 µM
OVCAR-8 ovarian
  GI50: 10.5 µM
  TGI: 26.9 µM
NCI-H460 lung
  GI50: 13.3 µM
  TGI: 81.3 µM
BT-549 breast
  GI50: 19.5 µM
  TGI: 52.3 µM
SF-268 CNS
  GI50: 12.7 µM
  TGI: 36.5 µM
ACHN renal
  GI50: 4.63 µM
  TGI: 38.5 µM
SN12C renal
  GI50: 21.5 µM
  TGI: > 100 µM
KM12 colon
  GI50: 21.5 µM
  TGI: > 100 µM
CCRF-CEM leukemia
  GI50: 1.34 µM
  TGI: 4.71 µM
U251 CNS
  GI50: 10.2 µM
  TGI: 22.7 µM
DU-145 prostate
  GI50: 15.5 µM
  TGI: 61.2 µM
MALME-3M melanoma
  GI50: 26.9 µM
  TGI: 88.7 µM
UACC-257 melanoma
  GI50: 41.6 µM
  TGI: > 100 µM
MOLT-4 leukemia
  GI50: 8.27 µM
  TGI: 72.5 µM
786-0 renal
  GI50: 2.08 µM
  TGI: 4.39 µM
HS 578T breast
  GI50: 16.2 µM
  TGI: > 100 µM
TK-10 renal
  GI50: 20.9 µM
  TGI: 40.9 µM
A549 NSCLC
  GI50: 17.7 µM
  TGI: 57 µM
SK-MEL-5 melanoma
  GI50: 49.7 µM
  TGI: > 100 µM
NCI-H522 lung
  GI50: 80.3 µM
  TGI: > 100 µM
SR leukemia
  GI50: 0.878 µM
  TGI: 52.4 µM
A498 renal
  GI50: 17.7 µM
  TGI: 47.6 µM
OVCAR-4 ovarian
  GI50: 4.05 µM
  TGI: 23.1 µM
M14 melanoma
  GI50: 35.4 µM
  TGI: > 100 µM
NCI-H23 lung
  GI50: 21.9 µM
  TGI: > 100 µM
OVCAR-5 ovarian
  GI50: 14.6 µM
  TGI: 30 µM
SW-620 colon
  GI50: 6.93 µM
  TGI: 23 µM
MDA-MB-435
  GI50: 31 µM
  TGI: > 100 µM
HT29 colon
  GI50: 19.3 µM
  TGI: > 100 µM
LOX IMVI melanoma
  GI50: 5.77 µM
  TGI: 23.7 µM
K-562 leukemia
  GI50: 2.67 µM
  TGI: 13.8 µM
NCI-H226 lung
  GI50: 17.1 µM
  TGI: > 100 µM
PC-3 prostate
  GI50: 4.6 µM
  TGI: 21.7 µM
UACC-62 melanoma
  GI50: > 100 µM
  TGI: > 100 µM
